# Results from the NIST ThermoML archive (doi:10.1016/j.tca.2014.02.019).
# “And” between values parts separate entries of the source, which are not always exact repeats. Equal values may be shown once. Numbers after ± are expanded uncertainties.
# What was measured:
# [1] = xn = mol fraction of the nth substance listed; conditions: 101 kPa, Liquid, x2 = 0; for viscosity: Falling or rolling sphere viscometry; for mass density: Vibrating tube method
# [2] = for viscosity / mass density: 101 kPa, Liquid; for viscosity: Falling or rolling sphere viscometry; for mass density: Vibrating tube method
SMILES,viscosity ([1]; 313.15 K) [mPa·s],mass density ([1]; 313.15 K) [kg/m3],viscosity ([1]; 318.15 K) [mPa·s],viscosity ([1]; 323.15 K) [mPa·s],mass density ([1]; 323.15 K) [kg/m3],viscosity ([1]; 328.15 K) [mPa·s],mass density ([1]; 328.15 K) [kg/m3],viscosity ([2]; 313.15 K) [mPa·s],mass density ([2]; 313.15 K) [kg/m3],viscosity ([2]; 318.15 K) [mPa·s],viscosity ([2]; 323.15 K) [mPa·s],mass density ([2]; 323.15 K) [kg/m3],viscosity ([2]; 328.15 K) [mPa·s],mass density ([2]; 328.15 K) [kg/m3],viscosity ([2]; 333.15 K) [mPa·s],mass density ([2]; 333.15 K) [kg/m3],viscosity ([2]; 338.15 K),mass density ([2]; 338.15 K) [kg/m3],viscosity ([2]; 343.15 K),mass density ([2]; 343.15 K) [kg/m3],further results
O [water] + CCOS(=O)(=O)[O-].CC[N+]1(C)CCCCC1,0.681 ± 0.11,992.15 ± 0.2,0.63 ± 0.1,0.593 ± 0.095,987.93 ± 0.2,0.56 ± 0.09,985.69 ± 0.2,–,–,–,–,–,–,–,–,–,–,–,–,–,viscosity ([1]; 298.15 K): 0.89 ± 0.14 mPa·s; viscosity ([1]; 303.15 K): 0.808 ± 0.13 mPa·s; viscosity ([1]; 308.15 K): 0.74 ± 0.12 mPa·s; viscosity ([1]; 333.15 K): 0.528 ± 0.085 mPa·s; mass density ([1]; 333.15 K): 983.17 ± 0.2 kg/m3; viscosity ([1]; 338.15 K): 0.5 ± 0.08 mPa·s; mass density ([1]; 338.15 K): 980.3 ± 0.2 kg/m3; viscosity ([1]; 343.15 K): 0.473 ± 0.076 mPa·s; mass density ([1]; 343.15 K): 978.1 ± 0.2 kg/m3
O [water] + CCOS(=O)(=O)[O-].CC[N+]1(C)CCOCC1,0.681 ± 0.11,992.15 ± 0.2,0.63 ± 0.1,0.593 ± 0.095,987.93 ± 0.2,0.56 ± 0.09,985.69 ± 0.2,–,–,–,–,–,–,–,–,–,–,–,–,–,viscosity ([1]; 298.15 K): 0.89 ± 0.14 mPa·s; viscosity ([1]; 303.15 K): 0.808 ± 0.13 mPa·s; viscosity ([1]; 308.15 K): 0.74 ± 0.12 mPa·s; viscosity ([1]; 333.15 K): 0.528 ± 0.085 mPa·s; mass density ([1]; 333.15 K): 983.17 ± 0.2 kg/m3; viscosity ([1]; 338.15 K): 0.5 ± 0.08 mPa·s; mass density ([1]; 338.15 K): 980.3 ± 0.2 kg/m3; viscosity ([1]; 343.15 K): 0.473 ± 0.076 mPa·s; mass density ([1]; 343.15 K): 978.1 ± 0.2 kg/m3
CCOS(=O)(=O)[O-].CC[N+]1(C)CCCC1 [1-ethyl-1-methylpyrrolidinium ethyl sulfate],–,–,–,–,–,–,–,78.32 ± 13,1176.31 ± 2.7,64.72 ± 10,53.51 ± 8.6,1170.95 ± 2.6,44.82 ± 7.2,1168.27 ± 2.6,37.95 ± 6.1,1165.59 ± 2.6,32.87 ± 5.3 mPa·s,1162.91 ± 2.6,29.23 ± 4.7 mPa·s,1160.23 ± 2.6,"mass density ([2]; 318.15 K): 1173.63 ± 2.6 kg/m3; Normal melting temperature ([2]; Crystal, visual observation): 36.92 ± 0.5 °C"
CCOS(=O)(=O)[O-].CC[N+]1(C)CCOCC1 [4-ethyl-4-methylmorpholinium ethyl sulfate],–,–,–,–,–,–,–,2426 ± 480,1242.67 ± 3,1677 ± 320,1129 ± 210,1236.35 ± 3,779.3 ± 140,1233.2 ± 2.9,552.3 ± 98,1230.06 ± 2.9,400.8 ± 69 mPa·s,1226.93 ± 2.9,297.3 ± 50 mPa·s,1223.81 ± 2.9,mass density ([2]; 298.15 K): 1252.26 ± 3 kg/m3; mass density ([2]; 303.15 K): 1249.05 ± 3 kg/m3; mass density ([2]; 308.15 K): 1245.86 ± 3 kg/m3; mass density ([2]; 318.15 K): 1239.51 ± 3 kg/m3
O [water] + CCOS(=O)(=O)[O-].CC[N+]1(C)CCCC1,0.681 ± 0.11,992.15 ± 0.2,0.63 ± 0.1,0.593 ± 0.095,987.93 ± 0.2,0.56 ± 0.09,985.69 ± 0.2,–,–,–,–,–,–,–,–,–,–,–,–,–,viscosity ([1]; 333.15 K): 0.528 ± 0.085 mPa·s; mass density ([1]; 333.15 K): 983.17 ± 0.2 kg/m3; viscosity ([1]; 338.15 K): 0.519 ± 0.083 mPa·s; mass density ([1]; 338.15 K): 980.3 ± 0.2 kg/m3; viscosity ([1]; 343.15 K): 0.51 ± 0.082 mPa·s; mass density ([1]; 343.15 K): 978.1 ± 0.2 kg/m3
O [water],–,–,–,–,–,–,–,0.681 ± 0.11,992.15 ± 0.2,0.63 ± 0.1,0.593 ± 0.095,987.93 ± 0.2,0.56 ± 0.09,985.69 ± 0.2,0.528 ± 0.085,983.17 ± 0.2,0.519 ± 0.083 mPa·s and 0.5 ± 0.08 mPa·s,980.3 ± 0.2,0.51 ± 0.082 mPa·s and 0.473 ± 0.076 mPa·s,978.1 ± 0.2,viscosity ([2]; 298.15 K): 0.89 ± 0.14 mPa·s; viscosity ([2]; 303.15 K): 0.808 ± 0.13 mPa·s; viscosity ([2]; 308.15 K): 0.74 ± 0.12 mPa·s
CCOS(=O)(=O)[O-].CC[N+]1(C)CCCCC1 [1-ethyl-1-methylpiperidinium ethyl sulfate],–,–,–,–,–,–,–,549.9 ± 97,1171.79 ± 2.6,391.8 ± 68,285.8 ± 48,1165.73 ± 2.6,212.6 ± 35,1162.62 ± 2.6,162.5 ± 27,1159.54 ± 2.6,126.1 ± 21 mPa·s,1156.56 ± 2.6,99.87 ± 16 mPa·s,1153.58 ± 2.6,viscosity ([2]; 298.15 K): 1821 ± 360 mPa·s; mass density ([2]; 298.15 K): 1181.33 ± 2.7 kg/m3; viscosity ([2]; 303.15 K): 1186 ± 220 mPa·s; mass density ([2]; 303.15 K): 1178.23 ± 2.7 kg/m3; viscosity ([2]; 308.15 K): 795.7 ± 140 mPa·s; mass density ([2]; 308.15 K): 1175.1 ± 2.7 kg/m3; mass density ([2]; 318.15 K): 1168.85 ± 2.6 kg/m3
